This note sets out measurements from patent publication US20250066338A1, “CERTAIN 3-AZABICYCLO[3.1.0]HEXANES AS GLP-1 RECEPTOR MODULATORS” (AstraZeneca AB, priority 2021, published 2025).

Assay [1] addresses human phosphodiesterase-3A (Homo sapiens (Human), UniProt Q14432). The assay is described as follows: PDE3 Assay. It is filed as biochemical. As to conditions: human recombinant enzyme expressed in Sf9 cells; formation of 5'AMP from cAMP. The protocol:
Evaluation of the effects of compounds on the activity of the human phosphodiesterase-3A is quantified by measuring the formation of 5′AMP from cAMP using a human recombinant enzyme expressed in a clonal isolate of Spodoptera frugiperda cells (Sf9) cells.
The test compound, reference compound or water (control) are added to a buffer containing 40 mM tris(hydroxymethyl)aminomethane (Tris)/HCl (pH 7.4) and 8 mM MgCl2, 450 nMcAMP and 0.25 μCi [^3H]cAMP.
Thereafter, the reaction is initiated by addition of the enzyme (about 1 U) and the mixture is incubated for 20 min at 22° C.
For basal control measurements, the enzyme is omitted from the reaction mixture. Following incubation SPA beads are added. After 30 min at 22° C. under shaking, the amount of [^3H]^+ 5′AMP is quantified with a scintillation counter (Topcount, Packard).
The results are expressed as a percent inhibition of the control enzyme activity. The standard inhibitory reference compound is milrinone (CAS number 78415-72-2), which is tested in each experiment at several concentrations to obtain an inhibition curve from which its IC50 value is calculated.

For another assay, the target named is human GLP-1R receptor (Homo sapiens (Human), UniProt P43220, L260F). As to the kind of experiment: CHOK1 GLP-1R cAMP Assay. The note with it: CHO-K1 cell line stably expressing human GLP-1R; HTRF cAMP; agonist activity. It counts as cell-based. The protocol:
A cell line stably expressing the human GLP-1R receptor (NM 002062.5, including the naturally-occurring variant Leu260Phe) in a CHO-K1 (ATCC® CCL-61™) was used for assay.
GLP-1 receptor mediated agonist activity was determined in a cell based assay measuring cyclic adenosine monophosphate (cAMP) levels in cells using Homogeneous Time-Resolved Fluorescence (HTRF) cAMP detection kit (CisBio catalog #62AM4PEC, cAMP Gs Dynamic range kit). The cAMP detection method is based on a competitive immunoassay, in which cAMP produced by the cells and cAMP labeled with the dye d2 compete for binding to a Europium-Cryptate-labeled anti-cAMP antibody. The specific HTRF signal is inversely proportional to the concentration of cAMP.
Compounds were added to individual well in 384 well-assay plates (Greiner #784076) using an Echo (LabCyte) dispenser from 10 mM stocks. Varying concentration of compounds were added to wells, and DMSO was used to normalize each well to a volume of 100 nL. A dose response curve of GLP1(7-36)NH2 (Bachem H-6795) was included in each run. 5 μL of cAMP concentration response standards are applied in specified wells in the assay plates. Cryo-preserved cells are thawed and resuspended in assay buffer pre-heated to 37° C. (20 mM HEPES pH 7.4, lx Hank's Balanced Salt Solution (HBSS, Life Technologies #14065) supplemented with 0.1% (w/v) bovine serum albumin (Sigma, A-7030). Cells were centrifuged at 250*g for 5 min at rt, and resuspended in room tempered assay buffer to a final density of 0.16*10^6 cell/mL, to deliver 800 cells/well. 5 μL of assay buffer with 1 mM 3-isobutyl-1-methylxanthin (IBMX; Sigma cat I-7018) was dispensed per well in assay plates using a multidrop combi (Thermo Scientific) subsequently 5 μL of cell suspension was distributed to relevant wells in the assay using a multidrop dispenser. Assay plates were incubated 20 min at rt.
Detection reagents, Europium-Cryptate-labeled anti-cAMP antibody and cAMP labeled with the dye d2, are diluted in lysis buffer, provided by the manufacturer. 5 μL of each detection reagent is supplemented to each assay well using a multidrop dispenser. Assay plates are incubated in the dark for at least one h. The HTRF signal is measured using the HTRF module (excitation: 337 nm, emission A: 665 nm and emission B: 620 nm) in Pherastar FSX (BMG Labtech).
Raw data were converted to pM cAMP using the cAMP standard curve included in each run. Converted data were further analyzed in Genedata Screener (Genedata) and EC50 determinations were made from agonist dose-response curves analyzed with a curve fitting program using a 4-parameter logistic dose response equation (Equation y=A+((B−A)/1+((C/x)^D))) where A is no stimulation, B is full stimulation, C is the EC50 and D is the Hill slope). The percent effect was determined relative to a saturating concentration of a full GLP-1R agonist (GLP1(7-36)NH2 has 100% effect in this assay setup).
(Time-resolved FRET reads energy transfer from a long-lived donor to a nearby acceptor.)

The target of assay [2] is GLP-1R in EndoC-βH1 cells (Homo sapiens (Human), UniProt P43220). As to the kind of experiment: EndoC cAMP Accumulation Assay. It counts as cell-based. The note with it: EndoC-βH1 human pancreatic beta cell line; HTRF cAMP accumulation. The text has this:
EndoC cAMP Accumulation Assay
A HTRF cAMP assay (cAMP Gs dynamic kit; CisoBio Cat #62AM4PEJ) was used to identify agonists of GLP-1R in a pancreatic insulinoma cell line (EndoC-βH1). […] EndoC-βH1 cells have detectable GLP-1R messenger ribonucleic acid (mRNA) as detected by quantitative polymerase chain reaction (qPCR). […] The EndoC-βH1 cell line is a valid model of human beta cells and applicable for screenings to identify novel drug target candidates (Mol. Metab., 2018, 8, 144-157). CisBio HTRF cAMP kits are based on a competitive immunoassay using cryptate-labelled anti-cAMP antibody and d2-labeled cAMP. The detection kit is intended for the direct quantitative determination of cAMP. The specific signal (i.e. energy transfer) is inversely proportional to the concentration of cAMP in the standard or sample. Test compounds (10 mM in DMSO) were diluted into assay buffer (HBSS (Sigma #H8264) supplemented with 25 mM HEPES (Gibco #15630, pH 7.4), 0.1% BSA (Sigma #A3059) and 0.5 mM IBMX (Sigma #17018) included fresh on the day of the assay) into 96 well U-bottom plates (Greiner #650201). Diluted compounds were transferred to ECHO source polypropylene plates (Labcyte #P-05525) and dose response curves were dispensed acoustically using ECHO 550 into black shallow-well u-bottom 384-well HTRF Assay Plates (Corning 4514).
Cryovials of EndoC-H1 (supplied at 1×10e^7 cells/vial) were used directly for screening. The cryovials and were removed from N2 (1) and thawed rapidly in a 37° C. water bath. The cells were resuspended in assay buffer and centrifuged at 300 g for 5 min. Cells were resuspended in assay buffer at the appropriate concentration, typically at 12e5 cells per mL (3000 cells per well, dependent on cell batch) and 2.5 μL diluted cells were added to all wells of destination plate by Multidrop combi reagent dispenser (Thermofisher). The plates were incubated at rt for 30 min. The assay was stopped by adding 2.5 μL anti-cAMP cryptate solution to all wells and 2.5 μL cAMP-d2 solution (both diluted 1:20 in lysis buffer) to columns 1-22 by Combi drop. A volume of 2.5 μL cAMP-d2 solution was added to wells E23 to P24 and 2.5 μL lysis buffer added to wells A23 to D24 by multichannel pipette. The plates were incubated at rt for 1 h and read on an Envision plate reader using excitation wavelength of 320 nm and emission of […] and 660 nm.
Raw data from Envision is converted to % DeltaF according to the manufacturer's instructions. Dose response curves are analysed via 4-Parameter Logistical Analysis and assay plate Z′ values obtained. Samples are graphed as percentage (%) activation plots compared to GIP (1-42, Bachem H-5645) with assay window defined by negative control as basal cell cAMP levels and positive control are defined by maximum GIP (82.5 nM) signal. GLP1 (7-36 amide, Bachem H-6795) dose response curve was included on all plates.

By IC50 is commonly meant the concentration that gives 50% inhibition. A word on the EC50: it is the midpoint of the concentration-response curve. High values mean a need for much substance, low ones an effect from little substance.

Chain of human phosphodiesterase-3A (Q14432 whole entry): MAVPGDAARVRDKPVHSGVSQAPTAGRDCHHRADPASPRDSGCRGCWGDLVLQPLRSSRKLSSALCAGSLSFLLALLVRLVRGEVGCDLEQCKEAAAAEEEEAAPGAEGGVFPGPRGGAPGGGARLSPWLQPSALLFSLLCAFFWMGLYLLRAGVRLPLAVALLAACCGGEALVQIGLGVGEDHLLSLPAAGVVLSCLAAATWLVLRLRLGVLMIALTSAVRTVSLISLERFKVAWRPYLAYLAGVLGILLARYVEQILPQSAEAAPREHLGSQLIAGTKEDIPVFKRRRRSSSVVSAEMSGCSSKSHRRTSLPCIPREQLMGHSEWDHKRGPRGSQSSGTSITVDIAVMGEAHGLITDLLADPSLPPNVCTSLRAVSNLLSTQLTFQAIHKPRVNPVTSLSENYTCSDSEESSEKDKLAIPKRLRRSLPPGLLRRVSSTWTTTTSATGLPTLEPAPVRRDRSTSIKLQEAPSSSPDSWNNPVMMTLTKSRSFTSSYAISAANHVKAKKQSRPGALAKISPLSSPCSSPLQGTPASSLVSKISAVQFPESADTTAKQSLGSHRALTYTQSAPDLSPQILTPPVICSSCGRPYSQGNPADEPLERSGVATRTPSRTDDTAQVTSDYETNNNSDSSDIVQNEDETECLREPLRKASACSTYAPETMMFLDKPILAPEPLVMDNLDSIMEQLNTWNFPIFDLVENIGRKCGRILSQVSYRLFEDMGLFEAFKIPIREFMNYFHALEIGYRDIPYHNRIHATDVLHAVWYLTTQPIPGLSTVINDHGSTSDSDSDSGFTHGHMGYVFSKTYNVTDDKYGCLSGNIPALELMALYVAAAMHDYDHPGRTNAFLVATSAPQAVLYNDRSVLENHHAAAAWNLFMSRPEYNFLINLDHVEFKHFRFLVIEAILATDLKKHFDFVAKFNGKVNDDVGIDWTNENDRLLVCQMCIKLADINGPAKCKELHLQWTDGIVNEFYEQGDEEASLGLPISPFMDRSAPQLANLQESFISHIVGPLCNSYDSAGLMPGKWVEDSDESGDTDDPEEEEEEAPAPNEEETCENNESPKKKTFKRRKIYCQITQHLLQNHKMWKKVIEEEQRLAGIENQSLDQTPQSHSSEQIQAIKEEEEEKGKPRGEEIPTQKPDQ
Chain of GLP-1R in EndoC-βH1 cells (P43220 24-463): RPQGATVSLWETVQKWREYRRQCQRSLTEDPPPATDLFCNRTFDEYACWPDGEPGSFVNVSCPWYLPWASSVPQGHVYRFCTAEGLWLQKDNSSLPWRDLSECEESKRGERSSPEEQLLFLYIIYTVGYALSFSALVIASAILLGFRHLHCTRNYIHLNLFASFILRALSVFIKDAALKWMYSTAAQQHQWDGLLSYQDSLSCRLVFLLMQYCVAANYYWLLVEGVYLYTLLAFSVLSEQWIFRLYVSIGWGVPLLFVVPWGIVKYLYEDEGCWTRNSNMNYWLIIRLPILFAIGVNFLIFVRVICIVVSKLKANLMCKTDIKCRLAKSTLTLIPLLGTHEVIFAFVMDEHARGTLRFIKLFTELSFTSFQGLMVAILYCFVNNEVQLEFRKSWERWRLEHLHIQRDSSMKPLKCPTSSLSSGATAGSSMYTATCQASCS
Chain of human GLP-1R receptor (P43220 24-463 L260F): as the sequence (P43220 24-463) above, with L237F counted along it

Take `N#Cc1ccc(COc2cccc(C3CCN(Cc4nc5ccc(C(=O)O)cc5n4C[C@H]4CCO4)CC3)n2)c(F)c1` [Ref Comp B, reference compound]: the IC50 in assay [1] was 11 µM.
`COc1cc(C(=O)O)cc2c1nc(CN1C[C@@H]3[C@H](C1)[C@H]3c1nc(OCc3ccc(Cl)cc3F)ccc1C)n2C[C@@H]1CCO1` [Example 19, 2-(((1R,5S,6S)-6-(6-((4-Chloro-2-fluorobenzyl)oxy)-3-methylpyridin-2-yl)-3-azabicyclo[3.1.0]hexan-3-yl)methyl)-4-methoxy-1-(((S)-oxetan-2-yl)methyl)-1H-benzo[d]imidazole-6-carboxylic acid]: the results for the EC50 (on human GLP-1R receptor; in assay [2]) were 0.019 µM and 0.0096 µM, respectively. For the same compound, the IC50 in assay [1] was > 100 µM.
On to `COc1cc(C(=O)O)cc2c1nc(CN1C[C@@H]3[C@H](C1)[C@H]3c1cccc(OCc3ccc(C)cc3)n1)n2C[C@@H]1CCO1` [Example 23, 4-Methoxy-2-(((1R,5S,6S)-6-(6-((4-methylbenzyl)oxy)pyridin-2-yl)-3-azabicyclo[3.1.0]hexan-3-yl)methyl)-1-(((S)-oxetan-2-yl)methyl)-1H-benzo[d]imidazole-6-carboxylic acid], for which the EC50 at human GLP-1R receptor came to 0.074 µM; in assay [2] it was 0.031 µM.
Turning to `N#Cc1ccc(COc2cccc([C@H]3[C@@H]4CN(Cc5nc6ccc(C(=O)O)cc6n5C[C@@H]5CCO5)C[C@@H]43)n2)c(F)c1` [Example 3, 2-(((1R,5S,6S)-6-(6-((4-Cyano-2-fluorobenzyl)oxy)pyridin-2-yl)-3-azabicyclo[3.1.0]hexan-3-yl)methyl)-1-(((S)-oxetan-2-yl)methyl)-1H-benzo[d]imidazole-6-carboxylic acid], the EC50 at human GLP-1R receptor is 0.075 µM; in assay [2] it was 0.021 µM.
For the compound `Cc1cc(Cc2nc3ccc(C(=O)O)cc3n2C[C@@H]2CCO2)c(F)cc1-c1cccc(OCc2ccc(C#N)cc2F)n1` [Ref Comp D, reference compound], the IC50 in assay [1] was 5 µM.
With `COc1cc(C(=O)O)cc2c1nc(CN1C[C@@H]3[C@H](C1)[C@H]3c1cccc(OCc3cc(C)ccc3F)n1)n2C[C@@H]1CCO1` [Example 21, 2-(((1R,5S,6S)-6-(6-((2-Fluoro-5-methylbenzyl)oxy)pyridin-2-yl)-3-azabicyclo[3.1.0]hexan-3-yl)methyl)-4-methoxy-1-(((S)-oxetan-2-yl)methyl)-1H-benzo[d]imidazole-6-carboxylic acid], the EC50 stood at 0.044 µM at human GLP-1R receptor and 1.1 µM in assay [2].
In the same order, the values of `Cc1cc(C(=O)O)cc2c1nc(CN1C[C@@H]3[C@H](C1)[C@H]3c1cccc(OCc3ccc(C#N)cc3F)n1)n2C[C@@H]1CCO1` [Example 9, 2-(((1R,5S,6S)-6-(6-((4-Cyano-2-fluorobenzyl)oxy)pyridin-2-yl)-3-azabicyclo[3.1.0]hexan-3-yl)methyl)-4-methyl-1-(((S)-oxetan-2-yl)methyl)-1H-benzo[d]imidazole-6-carboxylic acid] are 0.078 µM and 0.056 µM.
`COc1cc(C(=O)O)cc2c1nc(CN1C[C@@H]3[C@H](C1)[C@H]3c1nc(OCc3ccc(Cl)cc3F)ccc1Cl)n2C[C@@H]1CCO1` [Example 18, 2-(((1R,5S,6S)-6-(3-Chloro-6-((4-chloro-2-fluorobenzyl)oxy)pyridin-2-yl)-3-azabicyclo[3.1.0]hexan-3-yl)methyl)-4-methoxy-1-(((S)-oxetan-2-yl)methyl)-1H-benzo[d]imidazole-6-carboxylic acid]: the EC50 at human GLP-1R receptor stood at 0.066 µM; in assay [2], 0.042 µM.
Take `COc1cc(C(=O)O)cc2c1nc(CN1C[C@@H]3[C@H](C1)[C@H]3c1cccc(OCc3ccc(F)cc3F)n1)n2C[C@@H]1CCO1` [Example 20, 2-(((1R,5S,6S)-6-(6-((2,4-Difluorobenzyl)oxy)pyridin-2-yl)-3-azabicyclo[3.1.0]hexan-3-yl)methyl)-4-methoxy-1-(((S)-oxetan-2-yl)methyl)-1H-benzo[d]imidazole-6-carboxylic acid]: the values for the EC50 (on human GLP-1R receptor; in assay [2]) were 0.062 µM and 0.043 µM, respectively.
For `N#Cc1ccc(COc2cccc(C3=CCN(Cc4nc5ccc(C(=O)O)cc5n4C[C@@H]4CCO4)CC3)n2)c(F)c1` [Ref Comp A, reference compound], the IC50 in assay [1] came out at 4 µM.
As for `COc1cc(C(=O)O)cc2c1nc(CN1C[C@@H]3[C@H](C1)[C@H]3c1cccc(OCc3ccc(Cl)cc3F)n1)n2C[C@@H]1CCO1` [Example 11, 2-(((1R,5S,6S)-6-(6-((4-Chloro-2-fluorobenzyl)oxy)pyridin-2-yl)-3-azabicyclo[3.1.0]hexan-3-yl)methyl)-4-methoxy-1-(((S)-oxetan-2-yl)methyl)-1H-benzo[d]imidazole-6-carboxylic acid], the EC50 on human GLP-1R receptor worked out at 0.017 µM; in assay [2], 0.0065 µM.
Consider `COc1cc(C(=O)O)cc2c1nc(CN1C[C@@H]3[C@H](C1)[C@H]3c1cccc(OCc3ccc(C#N)cc3F)n1)n2C[C@@H]1CCO1` [Example 4, 2-(((1R,5S,6S)-6-(6-((4-Cyano-2-fluorobenzyl)oxy)pyridin-2-yl)-3-azabicyclo[3.1.0]hexan-3-yl)methyl)-4-methoxy-1-(((S)-oxetan-2-yl)methyl)-1H-benzo[d]imidazole-6-carboxylic acid], for which the EC50 came to 0.012 µM on human GLP-1R receptor and 0.0058 µM in assay [2].
